Data reported in patent US11945822B2, “Pyrazolo-triazine and/or pyrazolo-pxrimidine derivatives as selective inhibitor of cyclin dependent kinase” (QURIENT CO., LTD., priority 2018, dated 2024).
Like-named read-outs stand apart in the source and are kept apart here.

Assays:
CDK1/Cyclin B = target: T1, CDK1/Cyclin B (Homo sapiens, UniProt P06493); assay: Enzymatic assay for CDK1 (FRET based LANCE Ultra kinase assay); format: biochemical
T1 construct: purchased Invitrogen PR4768C
Procedure, shortened: (§1)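 LANCE Ultra TR-FRET: ULight-MBP peptide (68 nM) with ATP at Km, […], 60 min at 23° C. EDTA plus Eu-anti-phospho-MBP added, another 60 min, then 665/615 nm emission read. Compounds tested as 8-dose 4-fold DMSO dilutions.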

CDK2/Cyclin A = target: T2, CDK2/Cyclin A (Homo sapiens, UniProt P24941); assay: Enzymatic assay for CDK2 (FRET based LANCE Ultra kinase assay); format: biochemical
T2 construct: purchased Invitrogen PV6290
Procedure, shortened: as §1

CDK5/p25 = target: T3, CDK5/p25 (Homo sapiens, UniProt Q00535); assay: Enzymatic assay for CDK5 (FRET based LANCE Ultra kinase assay); format: biochemical
T3 construct: purchased Invitrogen PR8543B
Procedure, shortened: as §1

CDK7/Cyclin H/MNAT1 = target: T4, CDK7/Cyclin H/MNAT1 (Homo sapiens, UniProt P50613); assay: Enzymatic assay for CDK7 (FRET based LANCE Ultra kinase assay); format: biochemical
T4 construct: purchased Invitrogen PR6749B
Procedure, shortened: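 Inhibition was measured at Km ATP by time-resolved FRET between a Eu anti-phospho antibody and a phosphorylated ULight peptide. The enzyme was the purified CDK7/cyclin complex, and data were curve-fitted.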

HCT116 = assay: Cellular HCT116 viability assay (CellTiter-Glo, 72 hours); format: cell-based; settings: Homo sapiens, HCT-116
Procedure, shortened: (§2)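 Mycoplasma-tested cells, seeded at densities chosen for each line, received compound or DMSO vehicle (under 0.1% final) for 72 hours. Duplicate cultures were then read for viability by CellTiter-Glo luminescence.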

H460 = assay: Cellular H460 viability assay (CellTiter-Glo, 72 hours); format: cell-based; settings: Homo sapiens, NCI-H460
Procedure, shortened: as §2

MV4-11 = assay: Cellular MV4-11 viability assay (CellTiter-Glo, 72 hours); format: cell-based; settings: Homo sapiens
Procedure, shortened: as §2

MOLT-4 = assay: Cellular MOLT-4 viability assay (CellTiter-Glo, 72 hours); format: cell-based; settings: Homo sapiens, MOLT4 viability assay
Procedure, shortened: as §2

RPMI-8226 = assay: Cellular RPMI-8226 viability assay (CellTiter-Glo, 72 hours); format: cell-based; settings: Homo sapiens
Procedure, shortened: as §2

A2780 = assay: Cellular A2780 viability assay (CellTiter-Glo, 72 hours); format: cell-based; settings: Homo sapiens
From the text: Human T-cell acute lymphoblastic leukemia cell line, MOLT-4 (ATCC, Cat #CRL-1582), Human multiple myeloma cell line, RPMI-8226 (Invitrogen, Cat #22400-089) and MM.1S (ATCC, Cat #CRL-2974), NSCLC (Non-small cell lung cancer) cell line H460 (ATCC, Cat #HTB-177), Human colon colorectal carcinoma cell line HCT116 (ATCC, Cat #CCL-247), Human acute monocytic leukemia cell line MV4-11 (ATCC, Cat #CRL-9591), OVCAR-3 (ATCC, Cat #HTB-161) and A2780 (ECACC, Cat #93112519) were obtained from ATCC. Cells were grown in RPMI-1640 media (Invitrogen, Cat #22400-089) supplemented with 10% FBS (Invitrogen, Cat #10099141) and 1% penicillin/streptomycin (Invitrogen, Cat #15070063) and cultured at 37° C., 5% CO2 in a humidified chamber. All cell lines were routinely tested for mycoplasma.
The effect of the CDK7 inhibitor to inhibit the growth of target cancer cells was evaluated through the 72 hours time period of viability assay. Briefly, the candidate cell line ware plated in 96 well plate at the following density of cells respectively. 1×10^4 cells/well for MOLT-4, RPMI-8226, MV4-11 and MM.1S, 5×10^3 for H460, HCT116 and OVCAR-3 and IX 10^3 for A2780. After 24 hours, the cells were treated with various concentrations of the compound (ranging from 0.0015 uM to 10 uM). DMSO solvent without compound served as a control and final DMSO concentration less than 0.1%. After 72 hours of incubation at 37° C., 5% CO2 incubator, cells were analyzed for the viability using the CellTiter-Glo Luminescent Cell Viability Assay (Promega, Cat #G7570). All viability assays were performed in duplicate and Luminescence was read using an Envision (Perkin Elmer, USA). Data was analyzed using XLfit software.

[1] = read-out: CDK1 enzymatic activity (IC50 range)
[2] = read-out: CDK2 enzymatic activity (IC50 range)
[3] = read-out: CDK5 enzymatic activity (IC50 range)
[4] = read-out: CDK7 enzymatic activity (IC50 range)

T3 sequence (Q00535 whole entry): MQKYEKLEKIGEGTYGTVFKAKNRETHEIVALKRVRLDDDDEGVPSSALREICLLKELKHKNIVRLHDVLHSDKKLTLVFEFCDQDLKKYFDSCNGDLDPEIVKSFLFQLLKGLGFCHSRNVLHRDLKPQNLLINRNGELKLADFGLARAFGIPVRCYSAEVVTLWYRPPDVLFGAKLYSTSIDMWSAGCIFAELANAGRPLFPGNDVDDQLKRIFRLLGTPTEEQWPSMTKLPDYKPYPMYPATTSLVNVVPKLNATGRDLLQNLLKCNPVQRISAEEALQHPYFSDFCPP
T3 sequence (Q15078 99-307 partner limits assumed): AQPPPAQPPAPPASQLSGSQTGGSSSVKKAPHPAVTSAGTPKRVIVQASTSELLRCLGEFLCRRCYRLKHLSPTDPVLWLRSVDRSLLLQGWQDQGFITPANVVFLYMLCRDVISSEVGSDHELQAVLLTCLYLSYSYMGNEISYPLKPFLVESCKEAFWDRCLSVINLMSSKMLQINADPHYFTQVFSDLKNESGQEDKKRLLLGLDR
T1 sequence (P06493 whole entry): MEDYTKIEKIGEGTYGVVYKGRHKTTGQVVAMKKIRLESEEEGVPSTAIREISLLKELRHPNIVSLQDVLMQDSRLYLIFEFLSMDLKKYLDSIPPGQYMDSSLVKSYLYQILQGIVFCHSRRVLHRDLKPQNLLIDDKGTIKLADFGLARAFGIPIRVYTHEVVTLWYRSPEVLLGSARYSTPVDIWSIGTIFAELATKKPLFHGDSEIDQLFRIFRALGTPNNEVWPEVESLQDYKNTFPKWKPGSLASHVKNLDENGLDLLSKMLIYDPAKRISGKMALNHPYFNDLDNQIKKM
T1 sequence (P14635 whole entry partner): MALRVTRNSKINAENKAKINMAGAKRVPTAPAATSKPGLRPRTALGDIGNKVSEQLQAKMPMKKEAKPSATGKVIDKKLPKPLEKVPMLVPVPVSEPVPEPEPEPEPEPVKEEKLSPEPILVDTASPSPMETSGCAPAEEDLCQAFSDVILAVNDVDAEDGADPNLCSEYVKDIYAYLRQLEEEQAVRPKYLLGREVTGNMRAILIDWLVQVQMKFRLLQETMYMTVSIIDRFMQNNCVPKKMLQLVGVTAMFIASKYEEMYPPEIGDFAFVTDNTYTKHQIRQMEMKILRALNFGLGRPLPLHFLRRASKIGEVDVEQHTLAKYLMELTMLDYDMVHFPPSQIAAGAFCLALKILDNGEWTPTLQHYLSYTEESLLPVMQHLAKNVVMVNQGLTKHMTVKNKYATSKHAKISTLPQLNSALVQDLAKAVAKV
T4 sequence (P50613 whole entry): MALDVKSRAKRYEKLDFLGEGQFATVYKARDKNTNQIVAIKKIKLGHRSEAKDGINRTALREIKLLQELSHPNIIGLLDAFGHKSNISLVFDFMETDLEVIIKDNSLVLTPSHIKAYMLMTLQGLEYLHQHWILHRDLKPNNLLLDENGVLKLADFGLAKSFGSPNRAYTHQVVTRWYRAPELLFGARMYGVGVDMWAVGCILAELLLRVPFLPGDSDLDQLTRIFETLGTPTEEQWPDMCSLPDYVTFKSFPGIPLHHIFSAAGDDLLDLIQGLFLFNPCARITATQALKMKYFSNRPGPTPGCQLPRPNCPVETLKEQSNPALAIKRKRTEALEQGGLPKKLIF
T4 sequence (P51946 whole entry partner): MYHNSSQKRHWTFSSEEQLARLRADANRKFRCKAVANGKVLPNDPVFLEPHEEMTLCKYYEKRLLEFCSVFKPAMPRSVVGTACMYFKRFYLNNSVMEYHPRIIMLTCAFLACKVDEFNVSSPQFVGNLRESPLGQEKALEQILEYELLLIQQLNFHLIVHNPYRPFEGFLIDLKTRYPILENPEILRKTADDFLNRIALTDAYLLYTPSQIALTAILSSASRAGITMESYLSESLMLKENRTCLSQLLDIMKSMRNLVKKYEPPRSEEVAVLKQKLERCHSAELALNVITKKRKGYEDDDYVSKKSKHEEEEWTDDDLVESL
T4 sequence (P51948 whole entry partner): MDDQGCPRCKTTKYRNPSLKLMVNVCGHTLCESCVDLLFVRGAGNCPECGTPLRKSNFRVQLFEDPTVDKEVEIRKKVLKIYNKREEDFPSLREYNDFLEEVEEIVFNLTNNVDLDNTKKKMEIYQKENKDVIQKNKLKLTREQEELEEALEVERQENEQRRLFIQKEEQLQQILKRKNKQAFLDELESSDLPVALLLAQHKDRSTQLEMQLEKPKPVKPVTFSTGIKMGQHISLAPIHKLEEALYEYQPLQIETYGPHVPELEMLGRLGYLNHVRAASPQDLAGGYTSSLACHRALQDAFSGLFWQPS

SMILES | IC50 (CDK1/Cyclin B; [1]) [nM] | IC50 (CDK2/Cyclin A; [2]) [nM] | IC50 (CDK5/p25; [3]) [nM] | CDK1/CDK7: Selectivity of CDK7 inhibition over CDK1 inhibition (CDK7/Cyclin H/MNAT1; CDK7 over CDK1) | CDK2/CDK7: Selectivity of CDK7 inhibition over CDK2 inhibition (CDK7/Cyclin H/MNAT1; CDK7 over CDK2) | CDK5/CDK7: Selectivity of CDK7 inhibition over CDK5 inhibition (CDK7/Cyclin H/MNAT1; CDK7 over CDK5) | IC50 (CDK7/Cyclin H/MNAT1; [4]) [nM] | IC50 (HCT116) [nM] | IC50 (H460) [nM] | IC50 (MV4-11) [nM] | IC50 (MOLT-4) [nM] | IC50 (RPMI-8226) [nM] | IC50 (A2780) [nM] | IC50 (CDK1/Cyclin B; read-out: CDK1 enzymatic activity (IC50 activity range)) [nM] | IC50 (CDK2/Cyclin A; read-out: CDK2 enzymatic activity (IC50 activity range)) [nM] | IC50 (CDK5/p25; read-out: CDK5 enzymatic activity (IC50 activity range)) [nM] | CDK1/CDK7: Selectivity of CDK7 inhibition over CDK1 inhibition (CDK7/Cyclin H/MNAT1; CDK1/CDK7) | CDK2/CDK7: Selectivity of CDK7 inhibition over CDK2 inhibition (CDK7/Cyclin H/MNAT1; CDK2/CDK7) | CDK5/CDK7: Selectivity of CDK7 inhibition over CDK5 inhibition (CDK7/Cyclin H/MNAT1; CDK5/CDK7) | IC50 (CDK7/Cyclin H/MNAT1; read-out: CDK7 enzymatic activity (IC50 activity range)) [nM]
CC(C)c1cnn2c(NCc3ccccc3-n3cc4c(n3)CCCC4)nc(N3CCC(N)CC3)nc12 [Compound 109] | > 1000 | 100 to 1000 | 100 to 1000 | A (A=greater than 200 fold) | A (A=greater than 200 fold) | B (B=less than 200 fold, but greater than 20 fold) | < 100 | < 1000 | < 1000 | < 1000 | < 1000 | < 1000 | – | – | – | – | – | – | – | –
CC(C)c1cnn2c(NCc3ccccc3-c3cc4c(F)cccc4[nH]3)nc(N3CCC(N)CC3)nc12 [Compound 112] | 100 to 1000 | 100 to 1000 | < 100 | B (B=less than 200 fold, but greater than 20 fold) | B (B=less than 200 fold, but greater than 20 fold) | C (C=less than 20 fold) | < 100 | < 1000 | < 1000 | < 1000 | < 1000 | < 1000 | – | – | – | – | – | – | – | –
CC(=O)Nc1ccc2[nH]c(-c3ccccc3CNc3nc(N4CCC(N)CC4)nc4c(C(C)C)cnn34)cc2c1 [Compound 116] | 100 to 1000 | < 100 | < 100 | B (B=less than 200 fold, but greater than 20 fold) | B (B=less than 200 fold, but greater than 20 fold) | C (C=less than 20 fold) | < 100 | < 1000 | < 1000 | < 1000 | < 1000 | < 1000 | – | – | – | – | – | – | – | –
CC(C)c1cnn2c(NCc3c(Cl)cccc3C#N)nc(N3CCC(N)CC3)nc12 [Compound 242] | > 1000 | 100 to 1000 | 100 to 1000 | A (A=greater than 200 fold) | B (B=less than 200 fold, but greater than 20 fold) | B (B=less than 200 fold, but greater than 20 fold) | < 100 | – | < 1000 | < 1000 | – | – | ≤ 1000 | – | – | – | – | – | – | –
CC(C)c1cnn2c(NCc3ccccc3-c3ccc4cc(C(C)(C)O)ccc4n3)nc(N3CCC(O)(CN)CC3)nc12 [Compound 243] | > 1000 | > 1000 | > 1000 | A (A=greater than 200 fold) | A (A=greater than 200 fold) | A (A=greater than 200 fold) | < 100 | – | < 1000 | < 1000 | – | – | ≤ 1000 | – | – | – | – | – | – | –
CC(C)c1cnn2c(NCc3c(Cl)cccc3-n3ccc(C(C)(C)O)n3)nc(Nc3cccc4[nH]ccc34)nc12 [Compound 276] | – | – | – | – | – | – | – | – | – | < 1000 | – | – | 1000 to 10000 | > 1000 | > 1000 | > 1000 | B (B=less than 200 fold, but greater than 20 fold) | B (B=less than 200 fold, but greater than 20 fold) | B (B=less than 200 fold, but greater than 20 fold) | > 1000
